Results taken from US20260274836A1, “NOVEL HEPATOSELECTIVE POLYADENYLATING POLYMERASES INHIBITORS AND THEIR METHOD OF USE” (Baruch S. Blumberg Institute, priority 2022, published 2026).
pEC50: −log10 of the molar value. Read-outs that look alike come from different tables or passages of the source.

How the values were obtained:
HAV [1] = settings: cited from earlier work
OATP1B1 = target: T1, OATP1B1 (Homo sapiens, UniProt Q9Y6L6); experiment: OATP1B1 transporter substrate uptake in OATP1B1-HEK293 cells; type: in vitro ADME; settings: for Uptake Ratio (−/+Inhibitor): OATP1B1-HEK293 cells, inhibitor Rifamycin SV
T1 construct: expressed in transfected cells; host or cells: HEK293
T1 sequence (Q9Y6L6 1-691): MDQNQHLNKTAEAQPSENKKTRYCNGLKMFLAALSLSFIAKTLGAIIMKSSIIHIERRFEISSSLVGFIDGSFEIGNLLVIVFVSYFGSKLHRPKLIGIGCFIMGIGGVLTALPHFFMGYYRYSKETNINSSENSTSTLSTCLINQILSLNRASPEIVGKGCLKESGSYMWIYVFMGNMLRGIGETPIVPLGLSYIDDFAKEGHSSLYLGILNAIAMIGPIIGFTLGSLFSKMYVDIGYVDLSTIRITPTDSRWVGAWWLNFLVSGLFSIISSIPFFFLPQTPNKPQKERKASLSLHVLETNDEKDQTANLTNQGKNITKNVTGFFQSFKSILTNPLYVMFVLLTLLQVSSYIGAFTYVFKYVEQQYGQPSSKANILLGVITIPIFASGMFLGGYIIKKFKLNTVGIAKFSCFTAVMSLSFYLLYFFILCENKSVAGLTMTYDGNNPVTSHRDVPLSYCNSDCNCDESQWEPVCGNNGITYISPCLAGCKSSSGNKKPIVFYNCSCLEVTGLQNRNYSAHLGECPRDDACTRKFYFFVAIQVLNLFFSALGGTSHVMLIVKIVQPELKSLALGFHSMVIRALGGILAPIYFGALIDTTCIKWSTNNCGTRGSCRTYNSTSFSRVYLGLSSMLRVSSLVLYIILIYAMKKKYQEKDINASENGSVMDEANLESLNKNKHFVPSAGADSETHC
Method: (§1) Protocol for identification of compounds that are substrates of transporters OATPIBI and OATPIB3. Transfected HEK293 and vector control HEK293 cells were cultured in 24-well poly-D-lysine or collagen-coated tissue culture plates ([…]) for 2 and 10 minutes respectively in transport buffer (HBSSg, pH 7.4, pre-warmed to 37° C.). At a defined time point, the uptake experiments were stopped by removing dosing solution followed by two washes of ice-cold HBSSg buffer. The cells were lysed for 2 minutes with 75% ACN containing an appropriate internal standard (when available). Lysis buffer were chilled to −20° C., and the plate was kept on ice during lysis. The cell lysate was transferred into a 96-well plate for sample analysis with LC-MS/MS analysis to determine concentration of test compound in cell lysate. The uptake of test compounds was normalized by total cell protein using the BCA Protein Assay Kit following the manufacturer's protocol. The inhibitor Rifamycin SV was used to block OATP1B1 and OATP1B3 transporter activity in order to determine uptake ratios.

OATP1B3 = target: T2, OATP1B3 (Homo sapiens, UniProt Q9NPD5); experiment: OATP1B3 transporter substrate uptake in OATP1B3-HEK293 cells; type: in vitro ADME; settings: for Uptake Ratio (−/+Inhibitor): OATP1B3-HEK293 cells, inhibitor Rifamycin SV
T2 construct: expressed in transfected cells; host or cells: HEK293
T2 sequence (Q9NPD5 1-702): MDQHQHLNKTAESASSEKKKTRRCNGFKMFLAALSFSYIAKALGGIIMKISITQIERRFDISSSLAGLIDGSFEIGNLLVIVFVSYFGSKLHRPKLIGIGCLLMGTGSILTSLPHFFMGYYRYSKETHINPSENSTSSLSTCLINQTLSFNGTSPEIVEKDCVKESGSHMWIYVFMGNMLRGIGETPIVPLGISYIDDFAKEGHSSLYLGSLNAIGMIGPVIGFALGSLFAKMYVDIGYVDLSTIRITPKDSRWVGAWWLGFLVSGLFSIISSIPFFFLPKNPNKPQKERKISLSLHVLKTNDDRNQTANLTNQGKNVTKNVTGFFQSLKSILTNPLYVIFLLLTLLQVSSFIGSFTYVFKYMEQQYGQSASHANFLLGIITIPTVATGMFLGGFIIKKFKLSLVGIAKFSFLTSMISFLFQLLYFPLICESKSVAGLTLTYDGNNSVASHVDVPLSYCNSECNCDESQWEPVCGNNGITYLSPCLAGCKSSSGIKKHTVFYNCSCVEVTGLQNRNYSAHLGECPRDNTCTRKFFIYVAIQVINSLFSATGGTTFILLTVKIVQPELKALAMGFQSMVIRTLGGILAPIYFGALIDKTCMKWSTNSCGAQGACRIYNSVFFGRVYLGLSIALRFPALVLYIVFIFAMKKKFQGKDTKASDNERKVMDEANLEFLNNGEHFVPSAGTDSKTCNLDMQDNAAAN
Method: as §1

[2] = target: interaction of PAPD5 with ZCCHC14 (Homo sapiens, UniProt Q8NDF8); experiment: Interaction of PAPD5 with ZCCHC14
Sequence of interaction of PAPD5 with ZCCHC14 (Q8NDF8 whole entry): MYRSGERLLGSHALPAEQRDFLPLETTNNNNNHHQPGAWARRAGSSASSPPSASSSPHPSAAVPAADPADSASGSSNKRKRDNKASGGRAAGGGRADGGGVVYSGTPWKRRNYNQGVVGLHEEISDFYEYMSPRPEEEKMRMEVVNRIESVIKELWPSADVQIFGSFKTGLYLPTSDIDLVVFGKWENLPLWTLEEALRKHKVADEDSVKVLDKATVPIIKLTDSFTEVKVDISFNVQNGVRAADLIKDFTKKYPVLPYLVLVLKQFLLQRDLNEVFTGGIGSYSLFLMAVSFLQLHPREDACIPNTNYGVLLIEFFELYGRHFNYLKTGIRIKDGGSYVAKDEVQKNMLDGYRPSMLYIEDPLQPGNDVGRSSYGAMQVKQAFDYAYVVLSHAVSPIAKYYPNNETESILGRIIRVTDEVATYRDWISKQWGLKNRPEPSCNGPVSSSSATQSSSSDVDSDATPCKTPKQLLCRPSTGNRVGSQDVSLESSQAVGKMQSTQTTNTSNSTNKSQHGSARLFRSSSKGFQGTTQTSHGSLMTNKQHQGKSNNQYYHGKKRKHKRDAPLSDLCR

HAV [3] = settings: Ifnar1^−/− mice, cited from earlier work
[4] = tested on: 18f-NLuc reporter virus (HM175/18f HAV); experiment: Antiviral activity against human hepatitis A virus, 18f-NLuc reporter virus in Huh-7 cells; type: cell-based, Human Hepatitis A Virus (Hepatovirus A); settings: for pEC50: Huh-7 cells, 18f-NLuc virus, 48 hrs; for EC50: read-out: EC50 HAV (nM), Huh-7 cells, 18f-NLuc virus, 48 hrs
Method: Assay for Antiviral Activity Against Human Hepatitis A Virus (Hepatovirus A).
(§2) Assays for the anti-HAV activity of the hepatoselective DHQ compounds were carried out in Huh-7 human hepatoma cells using the 18f-NLuc reporter virus, which expresses nanoluciferase (NLuc) from sequence inserted into the polyprotein coding region of the HM175/18f HAV genome between the VP1pX and 2B coding sequences (Yamane et al., 2019). The method was modified minimally from that described by Misumi et al. for iminosugar compounds (Misumi et al., 2021). Cells (approximately […]) were plated in wells of a 96-well plate with Dulbecco's modified Eagle medium (DMEM) and 10% fetal bovine serum. The cells were inoculated 24 hrs later with 18f-NLuc virus (approximately 10^6-10^7 genome equivalents) in medium containing increasing concentrations of the compounds of interest. The cells were re-incubated for 48 hrs at 37° C. in a 5% CO2 environment, then lysed in 1× passive lysis buffer (Promega) for 15 min at room temperature. Cell lysates were transferred to an opaque white 96-well plate (Corning, 3912) and NLuc assay carried out using the NLuc GLOW Assay kit (Nanolight Technology). Luminescence was measured using a Biotek Synergy II multi-mode plate reader (BioTek Instruments). The percent inhibition of replication was calculated by determining the reduction in NLuc activity from that expressed by infected cells incubated in parallel in the absence of compound, and 50% inhibitory endpoints estimated by fitting the data to a four parameter variable slope logistic curve using Prism 9 for Mac OS software (GraphPad). Cell toxicity of the compounds was assessed using the WST-1 Cell Proliferation Reagent (Sigma-Aldrich) at the end of the treatment period in parallel cultures of uninfected cells, with WST-1 reagent added to cultures for 1 hr prior to harvest and O.D. reading.
as §2, with “Additional exemplary compounds of the present invention are evaluated for anti-HAV activity in accordance with certain assays described hereinabove. As discussed above, assays” for “Assays”, “10^6-107” for “10^6-10^7”

in vitro = type: cell-based; settings: human
Method: Assays for the anti-HAV activity of the hepatoselective DHQ compounds were carried out in Huh-7 human hepatoma cells using the 18f-NLuc reporter virus, which expresses nanoluciferase (NLuc) from sequence inserted into the polyprotein coding region of the HM175/18f HAV genome between the VP1pX and 2B coding sequences (Yamane et al., 2019). The method was modified minimally from that described by Misumi et al. for iminosugar compounds (Misumi et al., 2021). Cells (approximately […]) were plated in wells of a 96-well plate with Dulbecco's modified Eagle medium (DMEM) and 10% fetal bovine serum. The cells were inoculated 24 hrs later with 18f-NLuc virus (approximately 10^6-10^7 genome equivalents) in medium containing increasing concentrations of the compounds of interest. […] Luminescence was measured using a Biotek Synergy II multi-mode plate reader (BioTek Instruments). […] Cell toxicity of the compounds was assessed using the WST-1 Cell Proliferation Reagent (Sigma-Aldrich) at the end of the treatment period in parallel cultures of uninfected cells, with WST-1 reagent added to cultures for 1 hr prior to harvest and O.D. reading.
Additional exemplary compounds of the present invention are evaluated for anti-HAV activity in accordance with certain assays described hereinabove. […] Luminescence was measured using a Biotek Synergy II multi-mode plate reader (BioTek Instruments). […]

## COCCCOc1cc2c(cc1OC)-c1cc(=O)c(C(=O)O)cn1[C@H](C(C)C)C2 [DHQ-1]
HAV [1]
  HAV replication in cultured cells: inhibit HAV replication
OATP1B1; test concentration 1 μM
  Uptake Ratio (−/+Inhibitor): 0.38
OATP1B1; OATP1B1-HEK293 vs mock HEK293, test concentration 1 μM
  Uptake Ratio (Transporter(−Inhibitor)/Mock(−Inhibitor)): 0.71
OATP1B3; test concentration 1 μM
  Uptake Ratio (−/+Inhibitor): 0.42
OATP1B3; OATP1B3-HEK293 vs mock HEK293, test concentration 1 μM
  Uptake Ratio (Transporter(−Inhibitor)/Mock(−Inhibitor)): 0.56
[2]
  Interaction of PAPD5 with ZCCHC14: prevents the interaction of PAPD5 with ZCCHC14
HAV [3]; given shortly after intravenous virus challenge
  Prevention of infection: completely prevented infection
HAV [3]; oral treatment
  HAV replication in mice: blocked HAV replication

## C[C@]12CC[C@@H]3c4ccc(O)cc4CC[C@H]3[C@@H]1CC[C@@H]2O[C@@H]1O[C@H](C(=O)O)[C@@H](O)[C@H](O)[C@H]1O [Estradiol 17-β Glucuronide]
OATP1B1; test concentration 10 μM
  Uptake Ratio (−/+Inhibitor): 81.84
OATP1B1; OATP1B1-HEK293 vs mock HEK293, test concentration 10 μM
  Uptake Ratio (Transporter(−Inhibitor)/Mock(−Inhibitor)): 48.70
OATP1B3; test concentration 10 μM
  Uptake Ratio (−/+Inhibitor): 86.15
OATP1B3; OATP1B3-HEK293 vs mock HEK293, test concentration 10 μM
  Uptake Ratio (Transporter(−Inhibitor)/Mock(−Inhibitor)): 98.86

## COc1cc2c(cc1OCCCCCCCCC(=O)O)C[C@@H](C(C)C)n1cc(C(=O)O)c(=O)cc1-2 [Example 8, (S)-9-((8-carboxyoctyl)oxy)-6-isopropyl-10-methoxy-2-oxo-6,7-dihydro-2H-pyrido[2,1-a]isoquinoline-3-carboxylic acid]
[4]; Hepatovirus A, Huh-7, 48 h
  pEC50: 7.74
In vitro
  CC50 at 48 h: > 10000 nM

## COc1cc2c(cc1OCCCCCCCCC(=O)O)C[C@@H](C(C)C)n1cc(C(=O)O)c(=O)cc1-2 [Example A]
[4]; read-out: EC50 HAV
  pEC50: 7.17

## COc1cc2c(cc1OCCCCCCCCC(=O)O)C[C@@H](C(C)C)n1cc(C(=O)O)c(=O)cc1-2 [Example B]
[4]; read-out: EC50 HAV
  pEC50: 7.20

## COc1cc2c(cc1OCCc1cccc(C(=O)O)c1)C[C@@H](C(C)C)n1cc(C(=O)O)c(=O)cc1-2 [Example C]
[4]; Hepatovirus A, Huh-7, 48 h
  EC50: 325 nM

## COc1cc2c(cc1OCCc1ccc(C(=O)O)cc1)C[C@@H](C(C)C)n1cc(C(=O)O)c(=O)cc1-2 [Example D]
[4]; Hepatovirus A, Huh-7, 48 h
  EC50: 245 nM

## COc1cc2c(cc1OCCCc1ccc(C(=O)O)cc1)C[C@@H](C(C)C)n1cc(C(=O)O)c(=O)cc1-2 [Example E]
[4]; Hepatovirus A, Huh-7, 48 h
  EC50: 382 nM

## COc1cc2c(cc1OCCCCCC(C)(C)C(=O)O)C[C@@H](C(C)C)n1cc(C(=O)O)c(=O)cc1-2 [Example F]
[4]; Hepatovirus A, Huh-7, 48 h
  EC50: 25 nM

## COc1cc2c(cc1OCCCCCCC(=O)O)C[C@@H](C(C)C)n1cc(C(=O)O)c(=O)cc1-2 [Example G]
[4]; Hepatovirus A, Huh-7, 48 h
  EC50: 278 nM

## COc1cc2c(cc1OCCCCCCCCC(=O)O)C[C@@H](C(C)C)n1cc(C(=O)O)c(=O)cc1-2 [Example H]
[4]; read-out: EC50 HAV
  pEC50: 7.74
